Reference: ChEMBL document CHEMBL4334450, “Green synthesis, biological evaluation, molecular docking studies and 3D-QSAR analysis of novel phenylalanine linked quinazoline-4(3H)-one-sulphonamide hybrid entities distorting the malarial reductase activity in folate pathway” (Bioorg Med Chem, 2019)
pIC50: −log10 of the molar value. Values after ≈ are worked out from the molar mass of the structure shown.

Test system: bovine liver DHFR
Experiment: Therapeutic index, ratio of IC50 for African green monkey Vero cells to IC50 for bovine liver DHFR
Assay type: toxicity
Settings: read-out: Ratio IC50

Row | Compound | selectivity ratio
1 | CC(=O)Nc1ccc(S(=O)(=O)NC(Cc2ccccc2)c2nc3ccccc3c(=O)n2/N=C/c2cccc(F)c2)cc1 (centres undefined) | 517
2 | CC(=O)Nc1ccc(S(=O)(=O)NC(Cc2ccccc2)c2nc3ccccc3c(=O)n2/N=C/c2ccc(C)cc2)cc1 (centres undefined) | 273
3 | CC(=O)Nc1ccc(S(=O)(=O)NC(Cc2ccccc2)c2nc3ccccc3c(=O)n2/N=C/c2ccc(Br)cc2)cc1 (centres undefined) | 181
4 | CC(=O)Nc1ccc(S(=O)(=O)NC(Cc2ccccc2)c2nc3ccccc3c(=O)n2/N=C/c2ccc(F)cc2)cc1 (centres undefined) | 417
5 | CC(=O)Nc1ccc(S(=O)(=O)NC(Cc2ccccc2)c2nc3ccccc3c(=O)n2/N=C/c2cccc(Cl)c2)cc1 (centres undefined) | 306

Test system: Plasmodium falciparum
Experiment: Antiplasmodial activity against Plasmodium falciparum infected in human RBC assessed as reduction in parasite LDH activity by spectrophotometric assay
Assay type: functional, organism-based
Settings: not given

Row | IC50 [ppm] | Compound
6 | 4672 | CC(=O)Nc1ccc(S(=O)(=O)NC(Cc2ccccc2)c2nc3ccccc3c(=O)n2/N=C/c2cccc(F)c2)cc1 (centres undefined)
7 | 8432 | CC(=O)Nc1ccc(S(=O)(=O)NC(Cc2ccccc2)c2nc3ccccc3c(=O)n2/N=C/c2ccc(C)cc2)cc1 (centres undefined)
8 | 96.38 | CC(=O)Nc1ccc(S(=O)(=O)NC(Cc2ccccc2)c2nc3ccccc3c(=O)n2/N=C/c2ccc(Br)cc2)cc1 (centres undefined)
9 | 3402 | CC(=O)Nc1ccc(S(=O)(=O)NC(Cc2ccccc2)c2nc3ccccc3c(=O)n2/N=C/c2ccc(F)cc2)cc1 (centres undefined)
10 | 524.8 | CC(=O)Nc1ccc(S(=O)(=O)NC(Cc2ccccc2)c2nc3ccccc3c(=O)n2/N=C/c2cccc(Cl)c2)cc1 (centres undefined)

Test system: Erythrocyte
Experiment: Cytotoxicity against human RBC assessed as reduction in cell viability by MTT assay
Assay type: cell-based
Settings: not given

Row | Compound | CC50 [ppm]
11 | CC(=O)Nc1ccc(S(=O)(=O)NC(Cc2ccccc2)c2nc3ccccc3c(=O)n2/N=C/c2cccc(F)c2)cc1 (centres undefined) | 58408
12 | CC(=O)Nc1ccc(S(=O)(=O)NC(Cc2ccccc2)c2nc3ccccc3c(=O)n2/N=C/c2ccc(Br)cc2)cc1 (centres undefined) | 10575
13 | CC(=O)Nc1ccc(S(=O)(=O)NC(Cc2ccccc2)c2nc3ccccc3c(=O)n2/N=C/c2ccc(F)cc2)cc1 (centres undefined) | 29330
14 | CC(=O)Nc1ccc(S(=O)(=O)NC(Cc2ccccc2)c2nc3ccccc3c(=O)n2/N=C/c2cccc(Cl)c2)cc1 (centres undefined) | 18850
15 | CCN(CC)CCCC(C)Nc1ccnc2cc(Cl)ccc12 (centres undefined) [CHLOROQUINE] | 466.66

Test system: not listed separately
Experiment: Therapeutic index, ratio of CC50 for human RBC to EC50 for Plasmodium falciparum infected in human RBC
Assay type: toxicity
Settings: human red blood cells (RBC), read-out: Ratio CC50/EC50

Row | Compound | selectivity ratio
16 | CC(=O)Nc1ccc(S(=O)(=O)NC(Cc2ccccc2)c2nc3ccccc3c(=O)n2/N=C/c2cccc(F)c2)cc1 (centres undefined) | 20.6
17 | CC(=O)Nc1ccc(S(=O)(=O)NC(Cc2ccccc2)c2nc3ccccc3c(=O)n2/N=C/c2ccc(C)cc2)cc1 (centres undefined) | 1670
18 | CC(=O)Nc1ccc(S(=O)(=O)NC(Cc2ccccc2)c2nc3ccccc3c(=O)n2/N=C/c2ccc(Br)cc2)cc1 (centres undefined) | 91.5
19 | CC(=O)Nc1ccc(S(=O)(=O)NC(Cc2ccccc2)c2nc3ccccc3c(=O)n2/N=C/c2ccc(F)cc2)cc1 (centres undefined) | 15.4
20 | CC(=O)Nc1ccc(S(=O)(=O)NC(Cc2ccccc2)c2nc3ccccc3c(=O)n2/N=C/c2cccc(Cl)c2)cc1 (centres undefined) | 51.1

Molecular target: T1, Dihydrofolate reductase (Bos taurus, UniProt P00376)
T1 sequence (P00376 whole entry): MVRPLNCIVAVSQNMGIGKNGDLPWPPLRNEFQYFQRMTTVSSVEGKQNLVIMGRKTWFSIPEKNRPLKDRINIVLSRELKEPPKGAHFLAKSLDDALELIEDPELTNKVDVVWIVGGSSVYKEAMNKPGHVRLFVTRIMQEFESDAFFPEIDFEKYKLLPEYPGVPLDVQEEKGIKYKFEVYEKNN
Experiment: Inhibition of bovine liver DHFR using FH2 as substrate incubated for 2 mins followed by substrate addition
Settings: not given

Row | pIC50 | Compound
21 | 7.30 | CC(=O)Nc1ccc(S(=O)(=O)NC(Cc2ccccc2)c2nc3ccccc3c(=O)n2/N=C/c2cccc(F)c2)cc1 (centres undefined)
22 | 7.02 | CC(=O)Nc1ccc(S(=O)(=O)NC(Cc2ccccc2)c2nc3ccccc3c(=O)n2/N=C/c2ccc(C)cc2)cc1 (centres undefined)
23 | 6.89 | CC(=O)Nc1ccc(S(=O)(=O)NC(Cc2ccccc2)c2nc3ccccc3c(=O)n2/N=C/c2ccc(Br)cc2)cc1 (centres undefined)
24 | 7.21 | CC(=O)Nc1ccc(S(=O)(=O)NC(Cc2ccccc2)c2nc3ccccc3c(=O)n2/N=C/c2ccc(F)cc2)cc1 (centres undefined)
25 | 7.09 | CC(=O)Nc1ccc(S(=O)(=O)NC(Cc2ccccc2)c2nc3ccccc3c(=O)n2/N=C/c2cccc(Cl)c2)cc1 (centres undefined)

Test system: Plasmodium falciparum
Experiment: Antimalarial activity against Plasmodium falciparum FCR3 infected in human erythrocytes by Giemsa staining analysis
Assay type: functional, organism-based
Settings: not given

Row | IC50 [mg/L] | Compound
26 | 0.067 (≈ 0.116 µM) | CC(=O)Nc1ccc(S(=O)(=O)NC(Cc2ccccc2)c2nc3ccccc3c(=O)n2/N=C/c2ccc(C)cc2)cc1 (centres undefined)
27 | 0.92 (≈ 1.43 µM) | CC(=O)Nc1ccc(S(=O)(=O)NC(Cc2ccccc2)c2nc3ccccc3c(=O)n2/N=C/c2cccc(Br)c2)cc1 (centres undefined)
28 | 0.84 (≈ 1.4 µM) | CC(=O)Nc1ccc(S(=O)(=O)NC(Cc2ccccc2)c2nc3ccccc3c(=O)n2/N=C/c2ccc(Cl)cc2)cc1 (centres undefined)
29 | 0.092 (≈ 0.143 µM) | CC(=O)Nc1ccc(S(=O)(=O)NC(Cc2ccccc2)c2nc3ccccc3c(=O)n2/N=C/c2ccc(Br)cc2)cc1 (centres undefined)
30 | 0.68 (≈ 1.17 µM) | CC(=O)Nc1ccc(S(=O)(=O)NC(Cc2ccccc2)c2nc3ccccc3c(=O)n2/N=C/c2ccc(O)cc2)cc1 (centres undefined)
31 | 0.72 (≈ 1.21 µM) | COc1ccc(/C=N/n2c(C(Cc3ccccc3)NS(=O)(=O)c3ccc(NC(C)=O)cc3)nc3ccccc3c2=O)cc1 (centres undefined)
32 | 1.28 (≈ 2.26 µM) | CC(=O)Nc1ccc(S(=O)(=O)NC(Cc2ccccc2)c2nc3ccccc3c(=O)n2/N=C/c2ccccc2)cc1 (centres undefined)
33 | 0.067 (≈ 0.115 µM) | CC(=O)Nc1ccc(S(=O)(=O)NC(Cc2ccccc2)c2nc3ccccc3c(=O)n2/N=C/c2ccc(F)cc2)cc1 (centres undefined)
34 | 1.24 (≈ 2.13 µM) | CC(=O)Nc1ccc(S(=O)(=O)NC(Cc2ccccc2)c2nc3ccccc3c(=O)n2/N=C/c2cccc(O)c2)cc1 (centres undefined)
35 | 0.72 (≈ 1.18 µM) | CC(=O)Nc1ccc(S(=O)(=O)NC(Cc2ccccc2)c2nc3ccccc3c(=O)n2/N=C/c2ccc([N+](=O)[O-])cc2)cc1 (centres undefined)
36 | 0.082 (≈ 0.137 µM) | CC(=O)Nc1ccc(S(=O)(=O)NC(Cc2ccccc2)c2nc3ccccc3c(=O)n2/N=C/c2cccc(Cl)c2)cc1 (centres undefined)
37 | 0.7 (≈ 1.09 µM) | CC(=O)Nc1ccc(S(=O)(=O)NC(Cc2ccccc2)c2nc3ccccc3c(=O)n2/N=C/c2ccccc2Br)cc1 (centres undefined)
38 | 0.78 (≈ 1.35 µM) | CC(=O)Nc1ccc(S(=O)(=O)NC(Cc2ccccc2)c2nc3ccccc3c(=O)n2/N=C/c2cccc(C)c2)cc1 (centres undefined)

Further lines, the compound ahead of its results:

Row | Compound | IC50 [mg/L]
39 | CC(=O)Nc1ccc(S(=O)(=O)NC(Cc2ccccc2)c2nc3ccccc3c(=O)n2/N=C/c2cccc([N+](=O)[O-])c2)cc1 (centres undefined) | 1.12 (≈ 1.83 µM)
40 | CC(=O)Nc1ccc(S(=O)(=O)NC(Cc2ccccc2)c2nc3ccccc3c(=O)n2/N=C/c2cccc(F)c2)cc1 (centres undefined) | 0.084 (≈ 0.144 µM)
41 | CC(=O)Nc1ccc(S(=O)(=O)NC(Cc2ccccc2)c2nc3ccccc3c(=O)n2/N=C/c2ccccc2C)cc1 (centres undefined) | 1.26 (≈ 2.17 µM)
42 | COc1ccccc1/C=N/n1c(C(Cc2ccccc2)NS(=O)(=O)c2ccc(NC(C)=O)cc2)nc2ccccc2c1=O (centres undefined) | 1.05 (≈ 1.77 µM)
43 | COc1cccc(/C=N/n2c(C(Cc3ccccc3)NS(=O)(=O)c3ccc(NC(C)=O)cc3)nc3ccccc3c2=O)c1 (centres undefined) | 1.01 (≈ 1.7 µM)
44 | CC(=O)Nc1ccc(S(=O)(=O)NC(Cc2ccccc2)c2nc3ccccc3c(=O)n2/N=C/c2ccccc2F)cc1 (centres undefined) | 1.28 (≈ 2.19 µM)
45 | CC(=O)Nc1ccc(S(=O)(=O)NC(Cc2ccccc2)c2nc3ccccc3c(=O)n2/N=C/c2ccccc2Cl)cc1 (centres undefined) | 0.72 (≈ 1.2 µM)
46 | CC(=O)Nc1ccc(S(=O)(=O)NC(Cc2ccccc2)c2nc3ccccc3c(=O)n2/N=C/c2ccccc2[N+](=O)[O-])cc1 (centres undefined) | 1.52 (≈ 2.49 µM)
47 | CC(=O)Nc1ccc(S(=O)(=O)NC(Cc2ccccc2)c2nc3ccccc3c(=O)n2/N=C/c2ccccc2O)cc1 (centres undefined) | 0.78 (≈ 1.34 µM)
48 | C=C[C@H]1CN2CC[C@H]1C[C@H]2[C@H](O)c1ccnc2ccc(OC)cc12 [QUININE] | 0.268 (≈ 0.826 µM)

Test system: Vero
Experiment: Cytotoxicity against African green monkey Vero cells assessed as reduction in cell viability incubated for 72 hrs by CellTiter 96 Non-radioactive Cell Proliferation Assay
Assay type: cell-based
Settings: Chlorocebus sabaeus

Row | Compound | IC50 [mg/L]
49 | CC(=O)Nc1ccc(S(=O)(=O)NC(Cc2ccccc2)c2nc3ccccc3c(=O)n2/N=C/c2cccc(F)c2)cc1 (centres undefined) | 15 (≈ 25.7 µM)
50 | CC(=O)Nc1ccc(S(=O)(=O)NC(Cc2ccccc2)c2nc3ccccc3c(=O)n2/N=C/c2ccc(C)cc2)cc1 (centres undefined) | 15 (≈ 25.9 µM)
51 | CC(=O)Nc1ccc(S(=O)(=O)NC(Cc2ccccc2)c2nc3ccccc3c(=O)n2/N=C/c2ccc(Br)cc2)cc1 (centres undefined) | 15 (≈ 23.3 µM)
52 | CC(=O)Nc1ccc(S(=O)(=O)NC(Cc2ccccc2)c2nc3ccccc3c(=O)n2/N=C/c2ccc(F)cc2)cc1 (centres undefined) | 15 (≈ 25.7 µM)
53 | CC(=O)Nc1ccc(S(=O)(=O)NC(Cc2ccccc2)c2nc3ccccc3c(=O)n2/N=C/c2cccc(Cl)c2)cc1 (centres undefined) | 15 (≈ 25 µM)

Test system: Plasmodium falciparum
Experiment: Antiplasmodial activity against Plasmodium falciparum infected in human RBC […] by MTT assay
Assay type: functional, organism-based
Settings: not given

Row | Compound | EC50 [ppm]
54 | CC(=O)Nc1ccc(S(=O)(=O)NC(Cc2ccccc2)c2nc3ccccc3c(=O)n2/N=C/c2cccc(F)c2)cc1 (centres undefined) | 2831
55 | CC(=O)Nc1ccc(S(=O)(=O)NC(Cc2ccccc2)c2nc3ccccc3c(=O)n2/N=C/c2ccc(C)cc2)cc1 (centres undefined) | 1106
56 | CC(=O)Nc1ccc(S(=O)(=O)NC(Cc2ccccc2)c2nc3ccccc3c(=O)n2/N=C/c2ccc(Br)cc2)cc1 (centres undefined) | 115.61
57 | CC(=O)Nc1ccc(S(=O)(=O)NC(Cc2ccccc2)c2nc3ccccc3c(=O)n2/N=C/c2ccc(F)cc2)cc1 (centres undefined) | 1909
58 | CC(=O)Nc1ccc(S(=O)(=O)NC(Cc2ccccc2)c2nc3ccccc3c(=O)n2/N=C/c2cccc(Cl)c2)cc1 (centres undefined) | 368.97
59 | CCN(CC)CCCC(C)Nc1ccnc2cc(Cl)ccc12 (centres undefined) [CHLOROQUINE] | 28.97
